Source: US20250059220A1, “SUBSTITUTED BENZOTHIOPHENE DERIVATIVES AND METHODS OF USE THEREOF” (Merck Sharp & Dohme LLC, priority 2021, published 2025)

Assays:
human PTPN2 (1-387) = human PTPN2 (1-387) (Homo sapiens (Human), UniProt P17706); test: Human PTPN2 Biochemical Assay; details: DiFMUP substrate
Experimental: Human PTPN2 Biochemical Assay
Test compounds were dissolved in DMSO, and 10-point serial 3-fold dilution series in DMSO were prepared in Echo Qualified 384-well Polypropylene Microplates (Labcyte, San Jose, CA) (top concentration 50 µM). Assay plates (384-well low volume black plates; Corning #3820, Corning, NY) were prepared by dispensing 50 nL of test compound, and DMSO (for high and low controls) by ECHO acoustic dispenser (Labcyte, San Jose CA). This was followed by addition of 5 μL of 0.2 nM human PTPN2 (1-387) solution (prepared in the assay buffer, 50 mM Tris pH 7.4, 150 mM NaCl, 0.01% Tween20, 0.5 mM dithiothreitol) to all wells except the low control. 5 μl of assay buffer was added into the low control, then the plate was incubated for 30 minutes at room temperature. Subsequently, 5 μl of 100 µM DiFMUP (6,8-difluoro-4-methylumbelliferyl phosphate) solution (prepared in assay buffer from 10 mM stock in DMSO) was added to the assay plate and incubated for 1 hour at room temperature. For detection, assay plates were read on SpectraMax Microplate Reader (Molecular Devices), with Excitation wavelength=360 nm and Emission wavelength=460 nm. Test compound effects were normalized to the window defined by the controls, DMSO/buffer, and DMSO/50 pM human PTPN2. Calculated % effects were fit using a 4-parameter algorithm, and EC50 was reported.

human PTPN1 (1-435) = human PTPN1 (1-435) (Homo sapiens (Human), UniProt P18031); test: Human PTPN1 Biochemical Assay; details: DiFMUP substrate, read-out: PTP1B IC50
Experimental: Human PTPN1 Biochemical Assay
Test compounds were dissolved in DMSO, and 10-point serial 3-fold dilution series in DMSO were prepared in Echo Qualified 384-well Polypropylene Microplates (Labcyte, San Jose, CA) (top concentration 50 µM). […] 5 μl of assay buffer was added into the low control. The plate was incubated for 30 minutes at room temperature. Subsequently, 5 μl of 100 µM DiFMUP (6,8-difluoro-4-methylumbelliferyl phosphate) solution (prepared in assay buffer from 10 mM stock in DMSO) was added to the assay plate and incubated for 1 hour at room temperature. For detection, assay plates were read on SpectraMax Microplate Reader (Molecular Devices), with Excitation wavelength=360 nm and Emission wavelength=460 nm. […] Calculated % effects were fit using a 4-parameter algorithm, and EC50 was reported.

Chain of human PTPN1 (1-435) (P18031 whole entry): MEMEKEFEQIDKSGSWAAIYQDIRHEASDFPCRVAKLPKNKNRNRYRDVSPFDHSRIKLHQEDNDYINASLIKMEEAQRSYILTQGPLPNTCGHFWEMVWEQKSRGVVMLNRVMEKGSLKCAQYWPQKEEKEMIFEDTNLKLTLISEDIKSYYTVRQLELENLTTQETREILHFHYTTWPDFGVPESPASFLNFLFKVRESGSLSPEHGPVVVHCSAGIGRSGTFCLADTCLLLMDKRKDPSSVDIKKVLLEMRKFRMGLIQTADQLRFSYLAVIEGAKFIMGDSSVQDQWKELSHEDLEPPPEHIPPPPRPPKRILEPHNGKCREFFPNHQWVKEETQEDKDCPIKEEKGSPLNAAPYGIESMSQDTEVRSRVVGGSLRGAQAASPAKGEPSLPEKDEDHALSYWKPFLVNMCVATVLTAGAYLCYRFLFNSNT
Chain of human PTPN2 (1-387) (P17706 other isoform, or with tags, fused parts or gaps): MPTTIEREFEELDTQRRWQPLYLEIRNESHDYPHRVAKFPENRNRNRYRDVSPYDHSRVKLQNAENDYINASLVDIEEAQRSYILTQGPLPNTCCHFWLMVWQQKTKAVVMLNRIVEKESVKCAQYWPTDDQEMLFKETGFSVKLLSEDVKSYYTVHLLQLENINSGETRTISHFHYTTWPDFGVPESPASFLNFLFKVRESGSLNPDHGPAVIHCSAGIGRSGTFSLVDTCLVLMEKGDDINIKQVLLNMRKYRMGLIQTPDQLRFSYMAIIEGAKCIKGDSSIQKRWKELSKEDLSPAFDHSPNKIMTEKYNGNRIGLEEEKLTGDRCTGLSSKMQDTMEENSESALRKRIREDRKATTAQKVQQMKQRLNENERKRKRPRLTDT

| SMILES | IC50 (human PTPN2 (1-387)) | IC50 (human PTPN1 (1-435)) |
| --- | --- | --- |
| O=C(NC(c1cccnc1)C(F)(F)F)c1ccc2sc(C(F)(F)P(=O)(O)O)c(Br)c2c1 (single isomer, unassigned) [Compound 222a, (S or R)-((3-bromo-5-((2,2,2-trifluoro-1-(pyridin-3-yl)ethyl)carbamoyl)benzo[b]thiophen-2-yl)difluoromethyl)phosphonic acid] | 1.88 µM | 1.62 µM |
| O=C(NC(c1cccnc1)C(F)(F)F)c1ccc2sc(C(F)(F)P(=O)(O)O)c(Br)c2c1 (single isomer, unassigned) [Compound 222b, (R or S)-((3-bromo-5-((2,2,2-trifluoro-1-(pyridin-3-yl)ethyl)carbamoyl)benzo[b]thiophen-2-yl)difluoromethyl)phosphonic acid] | 0.771 µM | 0.707 µM |
| CC(NC(=O)c1ccc2sc(C(F)(F)P(=O)(O)O)c(Br)c2c1)c1cccnn1 (single isomer, unassigned) [Compound 225, (R or S)-((3-bromo-5-((1-(pyridazin-3-yl)ethyl)carbamoyl)benzo[b]thiophen-2-yl)difluoromethyl)phosphonic acid] | 2.2 µM | 2.41 µM |
| NC(c1cc(OCCCC(F)(F)F)c2sc(C(F)(F)P(=O)(O)O)c(Br)c2c1)C(F)(F)F (single isomer, unassigned) [Compound 261, (R or S)-((5-(1-amino-2,2,2-trifluoroethyl)-3-bromo-7-(4,4,4-trifluorobutoxy)benzo[b]thiophen-2-yl)difluoromethyl)phosphonic acid] | 5.88 µM | 2.02 µM |
| NC(=O)c1cc(OCCC2CCCS2(=O)=O)c2sc(C(F)(F)P(=O)(O)O)c(Br)c2c1 (single isomer, unassigned) [Compound 371] | 0.0269 µM | 0.018 µM |
| NC(=O)c1cc(OCCC2CCCS2(=O)=O)c2sc(C(F)(F)P(=O)(O)O)c(Br)c2c1 (single isomer, unassigned) [Compound 372] | 0.0197 µM | 0.0182 µM |
| CC1CCS(=O)(=O)C1CCOc1cc(C(N)=O)cc2c(Br)c(C(F)(F)P(=O)(O)O)sc12 (single isomer, unassigned) [Compound 393] | 0.048 µM | 0.0569 µM |
| CC1CCS(=O)(=O)C1CCOc1cc(C(N)=O)cc2c(Br)c(C(F)(F)P(=O)(O)O)sc12 (single isomer, unassigned) [Compound 394] | 0.0342 µM | 0.0261 µM |
| CC1CCS(=O)(=O)C1CCOc1cc(C(N)=O)cc2c(Br)c(C(F)(F)P(=O)(O)O)sc12 (single isomer, unassigned) [Compound 395] | 0.0173 µM | 0.0212 µM |
| CS(=N)(=O)Cc1cc(OCCCC(F)(F)F)c2sc(C(F)(F)P(=O)(O)O)c(Br)c2c1 (single isomer, unassigned) [Compound 411, ((3-bromo-5-(((R or S)-methylsulfonimidoyl)methyl)-7-(4,4,4-trifluorobutoxy)benzo[b]thiophen-2-yl)difluoromethyl)phosphonic acid] | 0.251 µM | 0.299 µM |
| NC(=O)c1cc(OCCC2CCNS2(=O)=O)c2sc(C(F)(F)P(=O)(O)O)c(Br)c2c1 (single isomer, unassigned) [Compound 461, (R or S)-((3-bromo-5-carbamoyl-7-(2-(1,1-dioxidoisothiazolidin-5-yl)ethoxy)benzo[b]thiophen-2-yl)difluoromethyl)phosphonic acid] | 0.0225 µM | 0.0211 µM |
| NC(=O)c1cc(OCCC2CCNS2(=O)=O)c2sc(C(F)(F)P(=O)(O)O)c(Br)c2c1 (single isomer, unassigned) [Compound 462] | 0.0121 µM | 0.0125 µM |
| O=C(Nc1ccccc1)c1ccc2sc(C(F)(F)P(=O)(O)O)c(Br)c2c1 [Compound 1, ((3-bromo-5-(phenylcarbamoyl)benzo[b]thiophen-2-yl)difluoromethyl)phosphonic acid] | 3.01 µM | 1.61 µM |
| NC(=O)c1ccc2sc(C(F)(F)P(=O)(O)O)c(Br)c2c1 [Compound 2] | 5.32 µM | 3.23 µM |
| N#Cc1c(C(F)(F)P(=O)(O)O)sc2ccc(C(=O)Nc3ccccc3)cc12 [Compound 3, ((3-cyano-5-(phenylcarbamoyl)benzo[b]thiophen-2-yl)difluoromethyl)phosphonic acid] | 1.02 µM | 1.13 µM |
| N#Cc1c(C(F)(F)P(=O)(O)O)sc2ccc(C(=O)NC3CC(F)(F)C3)cc12 [Compound 4] | 1.2 µM | 1.45 µM |
| COc1cccc(NC(=O)c2ccc3sc(C(F)(F)P(=O)(O)O)c(C#N)c3c2)c1 [Compound 5] | 0.896 µM | 1.13 µM |
| N#CCCNC(=O)c1ccc2sc(C(F)(F)P(=O)(O)O)c(C#N)c2c1 [Compound 6] | 4.64 µM | 6.05 µM |
| COCCN(CCOC)C(=O)c1ccc2sc(C(F)(F)P(=O)(O)O)c(Br)c2c1 [Compound 7, ((5-(bis(2-methoxyethyl)carbamoyl)-3-bromobenzo[b]thiophen-2-yl)difluoromethyl)phosphonic acid] | 1.33 µM | 0.764 µM |

| SMILES | IC50 (human PTPN2 (1-387)) | IC50 (human PTPN1 (1-435)) |
| --- | --- | --- |
| N#Cc1cccc2c(Br)c(C(F)(F)P(=O)(O)O)sc12 [Compound 8, ((3-bromo-7-cyanobenzo[b]thiophen-2-yl)difluoromethyl)phosphonic acid] | 3.94 µM | 3.27 µM |
| O=C(Nc1ccccc1)c1ccc2sc(C(F)(F)P(=O)(O)O)c(C(F)(F)F)c2c1 [Compound 9, (difluoro(5-(phenylcarbamoyl)-3-(trifluoromethyl)benzo[b]thiophen-2-yl)methyl)phosphonic acid] | 2.13 µM | 2.2 µM |
| O=C(NCc1cccnn1)c1cc(OCCCC(F)(F)F)c2sc(C(F)(F)P(=O)(O)O)c(Br)c2c1 [Compound 10, ((3-bromo-5-((pyridazin-3-ylmethyl)carbamoyl)-7-(4,4,4-trifluorobutoxy)benzo[b]thiophen-2-yl)difluoromethyl)phosphonic acid] | 0.00579 µM | 0.00461 µM |
| O=C(NCc1cccnc1)c1ccc2sc(C(F)(F)P(=O)(O)O)c(Br)c2c1 [Compound 11] | 3.05 µM | 2.16 µM |
| N#CCCNC(=O)c1ccc2sc(C(F)(F)P(=O)(O)O)c(Br)c2c1 [Compound 12] | 8.89 µM | 5.25 µM |
| O=C(NC(c1ccccc1F)C(F)(F)F)c1ccc2sc(C(F)(F)P(=O)(O)O)c(Br)c2c1 (stereo not drawn) [Compound 13] | 5.3 µM | 4.11 µM |
| O=C(N[C@@H]1CCC[C@H]1OCc1ccccc1)c1ccc2sc(C(F)(F)P(=O)(O)O)c(Br)c2c1 [Compound 14] | 4.12 µM | 2.69 µM |
| O=C(N[C@H]1Cc2ccc(F)cc21)c1ccc2sc(C(F)(F)P(=O)(O)O)c(Br)c2c1 [Compound 15] | 6.16 µM | 5.62 µM |
| O=C(NCC1CC1)c1ccc2sc(C(F)(F)P(=O)(O)O)c(Br)c2c1 [Compound 16] | 7.25 µM | 5.12 µM |
| O=C(Nc1cccc(OCC2CCCO2)c1)c1ccc2sc(C(F)(F)P(=O)(O)O)c(Br)c2c1 (stereo not drawn) [Compound 17] | 1.91 µM | 1.46 µM |
| O=C(Nc1cccc(OC(F)(F)F)c1)c1ccc2sc(C(F)(F)P(=O)(O)O)c(Br)c2c1 [Compound 18] | 2.17 µM | 1.33 µM |
| O=C(Nc1ncc(C2CCC2)o1)c1ccc2sc(C(F)(F)P(=O)(O)O)c(Br)c2c1 [Compound 19] | 2.35 µM | 1.5 µM |
| O=C(NCc1cccnn1)c1ccc2sc(C(F)(F)P(=O)(O)O)c(Br)c2c1 [Compound 31] | 1.47 µM |  |
| CC(C)(O)CCOc1cc(C(=O)NCc2cccnn2)cc2c(Br)c(C(F)(F)P(=O)(O)O)sc12 [Compound 169] | 0.133 µM |  |
| CNC(=O)COc1cc(C(N)=O)cc2c(Br)c(C(F)(F)P(=O)(O)O)sc12 [Compound 246] | 1.17 µM |  |
| NC(=O)c1cc(CCCCC(F)(F)F)c2sc(C(F)(F)P(=O)(O)O)c(Br)c2c1 [Compound 296, ((3-bromo-5-carbamoyl-7-(5,5,5-trifluoropentyl)benzo[b]thiophen-2-yl)difluoromethyl)phosphonic acid] | 0.241 µM |  |
| CCCCSc1cc(C(N)=O)cc2c(Br)c(C(F)(F)P(=O)(O)O)sc12 [Compound 309] | 0.335 µM |  |
| Cc1nnc(-c2cc(OCCCC(F)(F)F)c3sc(C(F)(F)P(=O)(O)O)c(Br)c3c2)[nH]1 [Compound 417, ((3-bromo-5-(5-methyl-4H-1,2,4-triazol-3-yl)-7-(4,4,4-trifluorobutoxy)benzo[b]thiophen-2-yl)difluoromethyl)phosphonic acid] | 0.00908 µM |  |
| O=P(O)(O)C(F)(F)c1sc2c(OCCCC(F)(F)F)cc(O)cc2c1Br [Compound 419, ((3-bromo-5-hydroxy-7-(4,4,4-trifluorobutoxy)benzo[b]thiophen-2-yl)difluoromethyl)phosphonic acid] | 0.345 µM |  |
